Patent US20250100977A1, “MERCAPTOPYRIMIDINE COMPOUNDS THAT INHIBIT NONHOMOLOGOUS END JOINING AND METHODS THEREOF” (INDIAN INSTITUTE OF SCIENCE, priority 2021, published 2025)
Read-outs that look alike come from different tables or passages of the source.

How the values were obtained:
53BP1 foci in HeLa cells = experiment: 53BP1 immunofluorescence in HeLa cells; format: cell-based; conditions: alone or alongside radiation; 24 h
Description: FIG. 7(A-F) depicts evaluation of generation of double-strand breaks inside cells treated with compounds SCR116 and SCR132 alone or in combination, A. Immunofluorescence with 53BP1 in HeLa cells treated with increasing concentration of SCR116 (2 and 5 μM) and SCR132 (1 and 2 μM). Nucleus is stained in red using propidium iodide, while green signal represents 53BP1 foci (FITC). B. Quantification of 53BP1 foci inside HeLa cells treated with SCR116 and SCR132 for 24 h, as denoted using scatter plot. Significance was calculated using ANOVA in GraphPad Prism software (ns, not significant; *p<0.05, **p<0.005, ***p<0.0001). C-D. Bar graphs showing percentage of viable cells following treatment with the compounds alone, or in presence of γ-radiation (0.5 Gy) at 24 (C) and 48 h (D). 2 and 4 μM SCR116, and 1 and 2 μM SCR132 were used. E. Bar graph showing percentage of viable cells following treatment with SCR116 (0.375 μM) or SCR132 (0.125 μM) alone, or in presence of 0.25 μM etoposide at 48 h. F. Bar graph showing percentage of viable cells following treatment with SCR116 (0.375 μM) or SCR132 (0.125 μM) alone, or in presence of 0.375 μM 5-FU at 48 h, in accordance with an implementation of the present disclosure.

[1] = 10 days dose ranging toxicity study; format: in vivo, Swiss albino mice; conditions: for Hemoglobin, MCHC, total leukocyte count and platelets: after 10 days of dose-ranging study; for Body weight: oral 80, 160 and 320 mg/kg b.wt., male and female, days 1, 8, 15, 22
Description: FIG. 12 depicts 10 days dose ranging toxicity studies of SCR116 and SCR132 (A) Body weight analyses of mice on 1, 8, 15 and 22 days after oral administration of low, medium and high concentrations of SCR116 and SCR132 (80, 160 and 320 mg/kg b.wt. respectively) in male. Mice treated with methyl cellulose served as vehicle control; and (B) Body weight analyses of mice on 1, 8, 15 and 22 days after oral administration of SCR116 and SCR132 (80, 160 and 320 mg/kg b.wt. respectively) in female.
FIG. 13 depicts the blood parameters analysis of Swiss albino mice after 10 days of dose-ranging study after treating with SCR116 and SCR132. A. RBC (n=3). B. Hemoglobin (n=3). C. MCHC (n=3). D. Total leukocyte count (n=3). E. Platelet count (n=3) (ns: not significant, *p<0.05: **p<0.005).

HeLa = experiment: Cytotoxicity (viable cells) in HeLa; format: cell-based; conditions: read-out: IC50 in cancer cell lines, HeLa
Description: (§1) The compounds of the present invention were screened initially in leukemic and cervical cancer cell lines (Table 1). […] In cervical cancer cell line HeLa, IC50 was 5 and 2 μM, respectively for SCR116 and SCR132 (FIG. 5A-B).
(§2) Ligase IV specificity of the compounds of the present invention inside the cells were also determined using Ligase IV knock out (KO) cell line N114 compared to the wild type Nalm6 (Table 2, FIGS. 5C, D, E and F). […] Table 1 showing IC50 of SCR7 derivatives in cancer cell lines Nalm6 and HeLa. IC50 was calculated using GraphPad Prism software from the percentage of viable cells following treatment with the compounds at 48 h. Table 2 showing IC50 of SCR116 and SCR132 in a panel of 16 cancer cell lines.

Reh = experiment: Cytotoxicity in Reh; format: cell-based; conditions: 48 h
Description: as §1, §2

Raji = experiment: Cytotoxicity in Raji; format: cell-based; conditions: Homo sapiens, Raji; Table 2; read-out: IC50 in cancer cell lines, Raji
Description: as §2

Molt3 = experiment: Cytotoxicity in Molt3; format: cell-based; conditions: Homo sapiens, MOLT-3; Table 2; read-out: IC50 in cancer cell lines, Molt3
Description: as §2

[2] = system: Dalton's Lymphoma (DLA) tumor; experiment: Mice allograft model, Dalton's Lymphoma (DLA); format: in vivo; conditions: for Tumor burden: oral, 15 and 25 mg/kg, pilot
Description: The effect of oral dose of the compounds of the present disclosure on mice Erlich Ascites Carcinoma (EAC) and Dalton's Lymphoma (DLA) tumors were also evaluated (FIGS. 10A-F).

SCC084 derived xenograft = experiment: Mouse xenograft model, SCC084; format: in vivo; conditions: oral cancer SCC084 xenograft; 8 oral doses
EAC = experiment: Cytotoxicity in EAC; format: cell-based, mice; conditions: Mus musculus; Table 2; read-out: IC50 in cancer cell lines, EAC
Description: as §2

L1210 = experiment: Cytotoxicity in L1210; format: cell-based; conditions: Mus musculus, L1210; Table 2; read-out: IC50 in cancer cell lines, L1210
Description: as §2

53BP1 foci in N114 = 53BP1 foci in N114 cells; format: cell-based; conditions: 24 h, SCR116 2, 5 μM, SCR132 1, 2 μM
Description: (§3) FIG. 8(A-B) depicts accumulation of DSBs inside cells following treatment with the compounds. A. Representative images for HeLa cells subjected to neutral comet assay following treatment with SCR116 and SCR132 for 24 h. […] FIG. 8C, D are representative images for Nalm6 cells (C) and N114 cells (D) following treatment with SCR116 and SCR132 for 24 h. and FIG. 8E, F are scatter plot depicting quantification of percentage of 53BP1 foci treated with SCR116 (2, 5 μM) and SCR132 (1, 2 μM) in Nalm6 and N114.

HeLa cells = experiment: Neutral comet assay in HeLa cells; format: cell-based; conditions: 24 h; SCR116 5 μM, SCR132 2 μM; radiation 0.5 Gy; vs control
Description: as §3

U118 = experiment: Cytotoxicity in U118; format: cell-based; conditions: Table 2; read-out: IC50 in cancer cell lines, U118
Description: as §2

[3] = system: Ligase IV knock out (KO) cell line N114; experiment: Cytotoxicity in Ligase IV knock out cell line N114; format: cell-based; conditions: Table 2, 48 h, read-out: IC50 in cancer cell lines, N114
Description: as §2

[4] = Homo sapiens, HeLa, 48 h, Table 1, 48 h
[5] = Homo sapiens, REH, Table 2, read-out: IC50 in cancer cell lines, Reh

Row | Structure (SMILES) | DNA damage marker 53BP1 (53BP1 foci in HeLa cells) | Hemoglobin, MCHC, total leukocyte count and platelets [1] | Body weight [1] | IC50 (HeLa; [4]) [µM] | IC50 (HeLa; Homo sapiens, HeLa, Table 2) [µM] | Fold difference of IC50 in Reh to that of SCR7 (Reh) [fold] | IC50 (Reh; [5]) [µM] | IC50 (Raji) [µM] | IC50 (Molt3) [µM] | Tumor burden [2] | Tumor volume (SCC084 derived xenograft) | IC50 (EAC) [µM] | IC50 (L1210) [µM] | 53BP1 foci (53BP1 foci in N114) | DNA in the tail of the comet (HeLa cells) | IC50 (U118) [µM] | IC50 [3] [µM] | further results
1 | Nc1nc(S)nc(O)c1/N=C/c1sc(Cl)nc1Cl [Compound 32, (E)-6-amino-5-(((2,4-dichlorothiazol-5-yl)methylene)amino)-2-mercaptopyrimidin-4-ol] | increase in DNA damage marker 53BP1 | no significant difference in hemoglobin, MCHC, total leukocyte count and platelets | no significant change in body weight | 2.08 | 2 | > 250 | 0.69 | 1.59 | 0.795 | reduced tumor burden | significant reduction in tumor volume | 14.8 | 0.879 | no significant increase in the number of 53BP1 foci | increased amount of DNA in the tail of the comet | 4.1 | 10.1 | IC50 (HeLa; Table 2, listed as SCR132): 2.08 µM; IC50 (Reh; Homo sapiens, REH, read-out: IC50 in Reh cells): 0.69 µM; Tumor size ([2]; selected oral dose 15 mg/kg): significant reduction in tumor size
2 | Nc1nc(S)nc(O)c1/N=C/c1ccc([N+](=O)[O-])s1 [Compound 16, (E)-6-amino-2-mercapto-5-(((5-nitrothiophen-2-yl)methylene)amino)pyrimidin-4-ol] | increase in DNA damage marker 53BP1 | no significant difference in hemoglobin, MCHC, total leukocyte count and platelets | no significant change in body weight | 5.92 | 5 | > 100 | 2.3 | 4.37 | 3.1 | reduced tumor burden | significant reduction in tumor volume | 16.5 | 3.75 | no significant increase in the number of 53BP1 foci | increased amount of DNA in the tail of the comet | 5.6 | 14.1 | RBC count ([1]; low doses, values still within the normal range): significant difference in RBC count; IC50 (Reh; Table 2, listed as SCR116, read-out: IC50 in cancer cell lines, Reh): 2.34 µM; Tumor size ([2]; selected oral dose 10 mg/kg): significant reduction in tumor size
